From ChEMBL document CHEMBL4387741, “Optimization of novel reversible Bruton's tyrosine kinase inhibitors identified using Tethering-fragment-based screens” (Bioorg Med Chem, 2019)

Tests used:
[1] = target: Casein kinase I isoform delta (Homo sapiens) (UniProt P48730); assay: Inhibition of wild-type human full length CSNK1D (M1 to K409 residues) expressed in bacterial expression system at 1 uM by Kinomescan method relative to control
[2] = tested on: Hepatocyte growth factor receptor (Homo sapiens), P08581 [Y1235D]; assay: Inhibition of human partial length MET Y1235D mutant (D1010 to S1367 residues) expressed in bacterial expression system at 1 uM by Kinomescan method relative to control
[3] = target: Inhibitor of nuclear factor kappa-B kinase subunit beta (Homo sapiens) (UniProt O14920); assay: Inhibition of wild-type human full length IKK-beta (M1 to S756 residues) expressed in mammalian expression system at 1 uM by Kinomescan method relative to control
[4] = target: Mitogen-activated protein kinase 3 (Homo sapiens) (UniProt P27361); assay: Inhibition of wild-type human full length ERK1 (M1 to P379 residues) expressed in bacterial expression system at 1 uM by Kinomescan method relative to control
Mitogen-activated protein kinase 3 (Homo sapiens), sequence (P27361 whole entry, the tested form may be a part): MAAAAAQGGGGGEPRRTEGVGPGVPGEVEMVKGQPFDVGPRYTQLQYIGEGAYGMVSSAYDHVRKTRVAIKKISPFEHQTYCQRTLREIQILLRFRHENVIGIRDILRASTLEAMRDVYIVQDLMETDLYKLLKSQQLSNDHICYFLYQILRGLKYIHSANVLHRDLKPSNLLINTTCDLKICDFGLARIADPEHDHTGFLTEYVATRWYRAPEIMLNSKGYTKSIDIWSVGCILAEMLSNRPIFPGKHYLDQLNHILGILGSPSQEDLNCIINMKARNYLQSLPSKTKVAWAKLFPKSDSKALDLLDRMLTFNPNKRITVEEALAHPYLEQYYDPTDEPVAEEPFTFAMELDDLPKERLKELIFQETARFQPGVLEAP

[5] = target: Vascular endothelial growth factor receptor 1 (Homo sapiens) (UniProt P17948); assay: Inhibition of wild-type human partial length FLT1 (R781 to F1239 residues) expressed in bacterial expression system at 1 uM by Kinomescan method relative to control
Vascular endothelial growth factor receptor 1 (Homo sapiens), sequence (P17948 whole entry, the tested form may be a part): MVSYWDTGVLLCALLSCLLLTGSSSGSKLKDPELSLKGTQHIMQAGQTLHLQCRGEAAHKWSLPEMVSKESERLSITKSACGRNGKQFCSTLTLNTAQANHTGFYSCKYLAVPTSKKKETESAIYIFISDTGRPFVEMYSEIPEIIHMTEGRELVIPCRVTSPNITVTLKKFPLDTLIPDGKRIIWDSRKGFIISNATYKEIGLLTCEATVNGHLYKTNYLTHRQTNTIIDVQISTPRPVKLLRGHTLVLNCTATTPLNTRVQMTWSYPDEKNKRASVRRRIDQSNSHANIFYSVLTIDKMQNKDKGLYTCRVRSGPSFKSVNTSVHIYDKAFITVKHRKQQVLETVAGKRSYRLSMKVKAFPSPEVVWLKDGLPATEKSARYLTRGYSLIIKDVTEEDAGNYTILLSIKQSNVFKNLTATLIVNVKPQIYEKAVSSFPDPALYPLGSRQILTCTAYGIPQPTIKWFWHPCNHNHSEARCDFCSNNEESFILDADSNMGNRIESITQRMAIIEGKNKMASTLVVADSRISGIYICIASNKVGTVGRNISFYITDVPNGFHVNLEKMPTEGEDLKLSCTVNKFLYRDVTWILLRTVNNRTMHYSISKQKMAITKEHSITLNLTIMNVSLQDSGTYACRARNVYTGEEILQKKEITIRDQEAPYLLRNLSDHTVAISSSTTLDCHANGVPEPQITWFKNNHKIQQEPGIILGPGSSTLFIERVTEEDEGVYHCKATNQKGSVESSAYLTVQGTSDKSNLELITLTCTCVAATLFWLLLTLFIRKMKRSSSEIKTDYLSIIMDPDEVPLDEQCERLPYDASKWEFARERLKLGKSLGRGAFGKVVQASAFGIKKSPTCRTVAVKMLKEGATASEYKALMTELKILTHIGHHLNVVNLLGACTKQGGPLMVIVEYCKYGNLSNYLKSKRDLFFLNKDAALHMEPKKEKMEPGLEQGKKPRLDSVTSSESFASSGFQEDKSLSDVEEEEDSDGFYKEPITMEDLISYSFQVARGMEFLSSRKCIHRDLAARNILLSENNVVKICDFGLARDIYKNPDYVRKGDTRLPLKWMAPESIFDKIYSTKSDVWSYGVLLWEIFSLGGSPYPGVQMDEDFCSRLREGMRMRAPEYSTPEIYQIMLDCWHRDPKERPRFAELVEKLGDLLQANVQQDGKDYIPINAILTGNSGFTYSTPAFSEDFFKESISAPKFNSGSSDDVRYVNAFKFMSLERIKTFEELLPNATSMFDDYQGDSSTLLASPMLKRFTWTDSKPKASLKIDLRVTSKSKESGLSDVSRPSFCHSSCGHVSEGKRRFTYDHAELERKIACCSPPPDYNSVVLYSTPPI

[6] = target: cAMP-dependent protein kinase catalytic subunit beta (Homo sapiens) (UniProt P22694); assay: Inhibition of wild-type human full length PKAC-beta (M1 to F351 residues) expressed in bacterial expression system at 1 uM by Kinomescan method relative to control
[7] = target: Homeodomain-interacting protein kinase 3 (Homo sapiens) (UniProt Q9H422); assay: Inhibition of wild-type human partial length HIPK3 (M153 to N562 residues) expressed in mammalian expression system at 1 uM by Kinomescan method relative to control
Homeodomain-interacting protein kinase 3 (Homo sapiens), sequence (Q9H422 whole entry, looked up, the tested form may be a part): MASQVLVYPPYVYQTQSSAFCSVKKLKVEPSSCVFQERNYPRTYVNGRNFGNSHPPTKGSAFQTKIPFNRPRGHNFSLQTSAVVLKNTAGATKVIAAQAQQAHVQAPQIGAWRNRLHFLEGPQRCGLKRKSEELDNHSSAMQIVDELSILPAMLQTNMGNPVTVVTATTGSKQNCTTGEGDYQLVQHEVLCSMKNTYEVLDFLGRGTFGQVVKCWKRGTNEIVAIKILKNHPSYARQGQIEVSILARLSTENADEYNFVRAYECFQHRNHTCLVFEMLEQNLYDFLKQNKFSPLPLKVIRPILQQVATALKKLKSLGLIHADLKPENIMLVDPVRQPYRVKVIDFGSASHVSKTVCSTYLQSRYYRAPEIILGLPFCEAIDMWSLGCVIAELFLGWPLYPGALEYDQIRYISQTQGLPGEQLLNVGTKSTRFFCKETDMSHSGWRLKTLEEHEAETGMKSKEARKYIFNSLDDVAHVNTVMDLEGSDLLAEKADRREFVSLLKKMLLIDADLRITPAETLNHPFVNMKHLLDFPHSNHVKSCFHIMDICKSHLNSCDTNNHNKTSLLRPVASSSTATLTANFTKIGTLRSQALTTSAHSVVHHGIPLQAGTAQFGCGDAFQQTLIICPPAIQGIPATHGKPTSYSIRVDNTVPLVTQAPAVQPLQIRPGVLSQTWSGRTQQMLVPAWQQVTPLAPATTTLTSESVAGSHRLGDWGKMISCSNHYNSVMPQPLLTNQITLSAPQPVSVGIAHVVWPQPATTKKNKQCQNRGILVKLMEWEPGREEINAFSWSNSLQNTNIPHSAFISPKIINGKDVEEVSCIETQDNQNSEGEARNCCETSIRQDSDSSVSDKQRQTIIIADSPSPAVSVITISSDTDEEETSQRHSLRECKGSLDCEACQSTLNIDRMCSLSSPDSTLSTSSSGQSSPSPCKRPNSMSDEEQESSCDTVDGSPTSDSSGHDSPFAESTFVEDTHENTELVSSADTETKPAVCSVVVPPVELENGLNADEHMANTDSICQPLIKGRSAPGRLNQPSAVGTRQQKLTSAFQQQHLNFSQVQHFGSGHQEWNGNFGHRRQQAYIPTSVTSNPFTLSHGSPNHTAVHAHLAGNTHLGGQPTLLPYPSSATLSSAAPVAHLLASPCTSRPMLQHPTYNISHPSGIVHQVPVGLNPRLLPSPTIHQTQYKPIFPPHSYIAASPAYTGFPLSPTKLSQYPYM

[8] = target: Mitogen-activated protein kinase kinase kinase 20 (Homo sapiens) (UniProt Q9NYL2); assay: Inhibition of wild-type human partial length ZAK (M1 to L331 residues) expressed in bacterial expression system at 1 uM by Kinomescan method relative to control
[9] = target: Dual specificity tyrosine-phosphorylation-regulated kinase 1A (Homo sapiens) (UniProt Q13627); assay: Inhibition of wild-type human partial length DYRK1A (H129 to S509 residues) expressed in mammalian expression system at 1 uM by Kinomescan method relative to control
[10] = target: Phosphorylase b kinase gamma catalytic chain, skeletal muscle/heart isoform (Homo sapiens) (UniProt Q16816); assay: Inhibition of wild-type human full length PHKG1 (M1 to Y387 residues) expressed in bacterial expression system at 1 uM by Kinomescan method relative to control
[11] = target: Interferon-induced, double-stranded RNA-activated protein kinase (Homo sapiens) (UniProt P19525); assay: Inhibition of wild-type human partial length PRKR (F247 to C551 residues) expressed in bacterial expression system at 1 uM by Kinomescan method relative to control
[12] = target: Dual specificity mitogen-activated protein kinase kinase 3 (Homo sapiens) (UniProt P46734); assay: Inhibition of wild-type human full length MEK3 (M1 to S318 residues) expressed in mammalian expression system at 1 uM by Kinomescan method relative to control
Dual specificity mitogen-activated protein kinase kinase 3 (Homo sapiens), sequence (P46734 whole entry, the tested form may be a part): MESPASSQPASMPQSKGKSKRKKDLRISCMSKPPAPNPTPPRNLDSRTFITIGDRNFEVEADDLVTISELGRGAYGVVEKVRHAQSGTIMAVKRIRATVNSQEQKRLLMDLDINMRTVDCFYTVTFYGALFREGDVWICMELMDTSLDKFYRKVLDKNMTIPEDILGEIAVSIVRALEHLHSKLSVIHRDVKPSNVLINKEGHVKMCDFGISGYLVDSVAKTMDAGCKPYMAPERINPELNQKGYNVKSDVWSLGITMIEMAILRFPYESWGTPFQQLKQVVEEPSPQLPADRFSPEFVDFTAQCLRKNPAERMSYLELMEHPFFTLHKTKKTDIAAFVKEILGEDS

[13] = target: Aurora kinase A (Homo sapiens) (UniProt O14965); assay: Inhibition of wild-type human partial length AURKA (E122 to K401 residues) expressed in mammalian expression system at 1 uM by Kinomescan method relative to control
Aurora kinase A (Homo sapiens), sequence (O14965 whole entry, the tested form may be a part): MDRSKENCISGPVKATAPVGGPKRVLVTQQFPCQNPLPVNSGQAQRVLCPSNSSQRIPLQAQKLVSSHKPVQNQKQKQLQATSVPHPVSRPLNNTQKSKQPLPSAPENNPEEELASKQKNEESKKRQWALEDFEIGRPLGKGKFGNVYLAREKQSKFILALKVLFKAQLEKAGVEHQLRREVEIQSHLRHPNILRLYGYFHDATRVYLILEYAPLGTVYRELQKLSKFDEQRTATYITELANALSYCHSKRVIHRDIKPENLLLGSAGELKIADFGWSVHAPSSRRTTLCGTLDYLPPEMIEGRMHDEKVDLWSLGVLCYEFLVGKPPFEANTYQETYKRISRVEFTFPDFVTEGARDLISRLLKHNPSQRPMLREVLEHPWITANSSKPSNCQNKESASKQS

[14] = target: STE20/SPS1-related proline-alanine-rich protein kinase (Homo sapiens) (UniProt Q9UEW8); assay: Inhibition of wild-type human partial length STK39 (P43 to I357 residues) expressed in mammalian expression system at 1 uM by Kinomescan method relative to control
[15] = target: Serine/threonine-protein kinase 17B (Homo sapiens) (UniProt O94768); assay: Inhibition of wild-type human full length DRAK2 (M1 to C372 residues) expressed in bacterial expression system at 1 uM by Kinomescan method relative to control
[16] = target: Activated CDC42 kinase 1 (Homo sapiens) (UniProt Q07912); assay: Inhibition of wild-type human partial length TNK2 (S159 to D474 residues) expressed in bacterial expression system at 10 uM by Kinomescan method relative to control
[17] = target: Serine/threonine-protein kinase Nek4 (Homo sapiens) (UniProt P51957); assay: Inhibition of wild-type human full length NEK4 (M1 to F841 residues) expressed in mammalian expression system at 10 uM by Kinomescan method relative to control
[18] = target: G protein-coupled receptor kinase 4 (Homo sapiens) (UniProt P32298); assay: Inhibition of wild-type human full length GRK4 (M1 to C578 residues) expressed in bacterial expression system at 10 uM by Kinomescan method relative to control
G protein-coupled receptor kinase 4 (Homo sapiens), sequence (P32298 whole entry, looked up, the tested form may be a part): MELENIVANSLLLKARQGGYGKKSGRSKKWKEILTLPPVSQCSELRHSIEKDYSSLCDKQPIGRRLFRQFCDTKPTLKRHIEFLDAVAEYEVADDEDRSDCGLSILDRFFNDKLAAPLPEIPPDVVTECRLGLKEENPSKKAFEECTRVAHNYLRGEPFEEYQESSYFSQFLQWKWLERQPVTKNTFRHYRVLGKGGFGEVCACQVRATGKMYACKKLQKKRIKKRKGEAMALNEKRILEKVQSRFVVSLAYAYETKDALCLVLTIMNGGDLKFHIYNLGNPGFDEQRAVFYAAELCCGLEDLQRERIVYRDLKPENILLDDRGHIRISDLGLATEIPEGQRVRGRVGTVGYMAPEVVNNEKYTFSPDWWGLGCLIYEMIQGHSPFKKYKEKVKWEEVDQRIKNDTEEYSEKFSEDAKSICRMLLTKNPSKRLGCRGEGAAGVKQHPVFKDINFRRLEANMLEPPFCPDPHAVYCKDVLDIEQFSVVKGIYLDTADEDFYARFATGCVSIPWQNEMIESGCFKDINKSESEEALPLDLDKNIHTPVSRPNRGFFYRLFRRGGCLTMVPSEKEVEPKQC

[19] = target: Serine/threonine-protein kinase tousled-like 2 (Homo sapiens) (UniProt Q86UE8); assay: Inhibition of wild-type human partial length TLK2 (E424 to N749 residues) expressed in bacterial expression system at 10 uM by Kinomescan method relative to control
[20] = target: Receptor tyrosine-protein kinase erbB-4 (Homo sapiens) (UniProt Q15303); assay: Inhibition of wild-type human partial length ERBB4 (L690 to K994 residues) expressed in bacterial expression system at 10 uM by Kinomescan method relative to control
[21] = target: Serine/threonine-protein kinase RIO3 (Homo sapiens) (UniProt O14730); assay: Inhibition of wild-type human full length RIOK3 (M1 to E519 residues) expressed in bacterial expression system at 10 uM by Kinomescan method relative to control
[22] = target: Dual specificity mitogen-activated protein kinase kinase 2 (Homo sapiens) (UniProt P36507); assay: Inhibition of wild-type human full length MEK2 (M1 to V400 residues) expressed in mammalian expression system at 10 uM by Kinomescan method relative to control
[23] = target: Serine/threonine-protein kinase TAO2 (Homo sapiens) (UniProt Q9UL54); assay: Inhibition of wild-type human partial length TAOK2 (M1 to A320 residues) expressed in mammalian expression system at 10 uM by Kinomescan method relative to control
[24] = target: AP2-associated protein kinase 1 (Homo sapiens) (UniProt Q2M2I8); assay: Inhibition of human wild-type AAK1 (G25 to L333 residues) expressed in bacterial expression system at 10 uM by Kinomescan method relative to control
[25] = target: Homeodomain-interacting protein kinase 3 (Homo sapiens) (UniProt Q9H422); assay: Inhibition of wild-type human partial length HIPK3 (M153 to N562 residues) expressed in mammalian expression system at 10 uM by Kinomescan method relative to control
[26] = target: Ephrin type-A receptor 1 (Homo sapiens) (UniProt P21709); assay: Inhibition of wild-type human partial length EPHA1 (V588 to I913 residues) expressed in bacterial expression system at 10 uM by Kinomescan method relative to control
[27] = target: Serine/threonine-protein kinase BRSK1 (Homo sapiens) (UniProt Q8TDC3); assay: Inhibition of wild-type human partial length BRSK1 (M1 to E754 residues) expressed in bacterial expression system at 10 uM by Kinomescan method relative to control
Serine/threonine-protein kinase BRSK1 (Homo sapiens), sequence (Q8TDC3 whole entry, the tested form may be a part): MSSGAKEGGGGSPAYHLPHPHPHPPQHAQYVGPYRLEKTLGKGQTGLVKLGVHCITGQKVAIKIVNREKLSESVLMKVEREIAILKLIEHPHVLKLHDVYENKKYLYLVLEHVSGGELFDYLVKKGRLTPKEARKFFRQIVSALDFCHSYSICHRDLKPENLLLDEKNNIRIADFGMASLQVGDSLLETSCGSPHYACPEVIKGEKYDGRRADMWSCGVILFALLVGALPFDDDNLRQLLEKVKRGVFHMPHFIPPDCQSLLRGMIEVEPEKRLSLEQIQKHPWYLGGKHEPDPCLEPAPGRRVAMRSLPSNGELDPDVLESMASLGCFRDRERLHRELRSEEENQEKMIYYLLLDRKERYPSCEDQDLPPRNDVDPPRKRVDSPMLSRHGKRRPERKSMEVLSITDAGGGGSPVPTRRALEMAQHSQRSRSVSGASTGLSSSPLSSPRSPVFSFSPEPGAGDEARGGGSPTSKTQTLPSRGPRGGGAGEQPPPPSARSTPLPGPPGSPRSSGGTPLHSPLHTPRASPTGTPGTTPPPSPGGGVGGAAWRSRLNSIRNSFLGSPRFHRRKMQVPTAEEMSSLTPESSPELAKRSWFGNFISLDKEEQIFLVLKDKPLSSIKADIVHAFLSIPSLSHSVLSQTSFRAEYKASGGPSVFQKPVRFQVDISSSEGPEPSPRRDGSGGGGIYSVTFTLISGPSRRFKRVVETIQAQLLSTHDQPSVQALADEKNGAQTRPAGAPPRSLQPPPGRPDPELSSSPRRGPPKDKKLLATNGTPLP

O=C(Nc1cccc([C@@H]2CN(c3ncnc4[nH]ccc34)CCN2CCO)c1)Nc1c(F)cccc1N1CCCC1
inhibition [1]: 100% | inhibition [2]: 67% | inhibition [3]: 74% | inhibition [4]: 100% | inhibition [5]: 35% | inhibition [6]: 99% | inhibition [7]: 86% | inhibition [8]: 100% | inhibition [9]: 87% | inhibition [10]: 98% | inhibition [11]: 100% | inhibition [12]: 77% | inhibition [13]: 3.6% | inhibition [14]: 75% | inhibition [15]: 73%

O=C(Nc1cccc([C@H]2CCCN(c3ncnc4[nH]ccc34)C2)c1)Nc1ccccc1N1CCCC1
inhibition [16]: 100% | inhibition [17]: 87% | inhibition [18]: 7.4% | inhibition [19]: 89% | inhibition [20]: 88% | inhibition [21]: 0.35% | inhibition [22]: 17% | inhibition [23]: 100% | inhibition [24]: 26% | inhibition [25]: 47% | inhibition [26]: 89% | inhibition [27]: 95%
